Test results taken from patent US20240122865A1, “Methods of Protecting RNA” (Pfizer Inc., priority 2021, published 2024).

Assays:
Assay type in all cases: biochemical, Trichoderma atroviride
FgenL model RNA = test: TapeStation Assay, FgenL model RNA; design: Conc. FgenL#1 / Conc. FgenL#2: unit not given here; conditions: for % Control N = 1 / % Control N = 2 / % Control Average: FgenL RNA, 20 mM amino acids, 50 mM CAPS pH 11, 50° C. 15 min; for % Control N = 1 / % Control N = 2: vs Time 0; for % Control Average: vs Time 0, Avg N=2; for Conc. FgenL#1 / Conc. FgenL#2: intact FgenL RNA after 15 min at 50° C.; for Conc. FgenL#1: 20 mM amino acids in 50 mM CAPS pH 11, run #1; for Conc. FgenL#2: 20 mM amino acids in 50 mM CAPS pH 11, run #2
Summary of the method: (§1)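 Chi18 or FgenL model RNA at 50 ng/μL in 50 mM CAPS pH 11 was mixed with amino acids (stocks in CAPS, readjusted to >pH 11) and heated at 50° C for 0 or 15 minutes; time-0 samples stayed on ice. Intact RNA was measured by capillary electrophoresis with optical detection and compared with a no-degradation baseline.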

Chi18 model RNA [1] = test: TapeStation Assay, Chi18 model RNA; design: Conc. chi18#1 / Conc. chi18#2: unit not given here; conditions: for % Control N = 1 / % Control N = 2 / % Control Avg.: Chi18 RNA, 20 mM amino acids, 50 mM CAPS pH 11, 50° C. 15 min; for % Control N = 1 / % Control N = 2: vs Time 0; for % Control Avg.: vs Time 0, Avg N=2; for Conc. chi18#1: 20 mM amino acids in 50 mM CAPS pH 11, run #1
Summary of the method: as §1

Chi18 mRNA construct = test: Size Exclusion Base Hydrolysis Degradation Assay, Chi18; conditions: for T0 R1 peak area at 250 nm: Chi18 0.1 mg/mL, 25 mM amino acid, 50 mM CAPS, T=0, replicate 1; for T2 Avg, peak area as percentage of T=0 / T2 R1 peak area at 250 nm / T10 Avg, peak area as percentage of T=0 / T10 R1 peak area at 250 nm / T24 Avg, peak area as percentage of T=0 / T24 R1 peak area at 250 nm / T0 Avg, peak area as percentage of T=0: Chi18, 25 mM amino acid; for T2 Avg, peak area as percentage of T=0 / T2 R1 peak area at 250 nm / T10 Avg, peak area as percentage of T=0 / T10 R1 peak area at 250 nm / T24 Avg, peak area as percentage of T=0 / T24 R1 peak area at 250 nm: 50 mM CAPS pH 11, room temperature; for T2 Avg, peak area as percentage of T=0 / T2 R1 peak area at 250 nm: 2 hrs; for T2 R1 peak area at 250 nm / T10 R1 peak area at 250 nm / T24 R1 peak area at 250 nm: replicate 1; for T10 Avg, peak area as percentage of T=0 / T10 R1 peak area at 250 nm: 10 hrs; for T24 Avg, peak area as percentage of T=0 / T24 R1 peak area at 250 nm: 24 hrs; for T0 Avg, peak area as percentage of T=0: T=0 (reference)
Procedure: Basic assay procedure: RNA samples were diluted to 1.0 mg/mL in DNAase/RNAase free water. Amino acids were dissolved in water to a stock solution of 100 mM and a solution of 500 mM CAPS pH 11 was used. The two mRNA constructs tested were FgenL and Chi18. Each individual sample volume was 50 μL. To determine the amount of 1 M NaOH needed to adjust the final pH to 11.0 after the addition of all sample components, the sample volume was increased 100 fold (5 mL), the volume of 1 M NaOH recorded and this value was translated back down to the 50 μL sample volume.
The mRNA and amino acid were allowed to incubate for one hour prior to the addition of CAPS pH 11. All steps of the assay were conducted at room temperature.
Degradation reaction: After the CAPS addition, the samples were injected onto the Waters H-Class UPLC system to record the first timepoint, T=O. This resulting chromatogram was processed by integrating the area of absorbance at 250 nm for the mRNA construct. Immediately following this timepoint, the pH was adjusted to 11. Subsequent time points (2 hrs, 10 hrs, and 24 hrs) recorded the Absorbance Units (peak area) at 250 nm as a percentage of the peak area determined at T=O. Integration of the chromatogram for subsequent timepoints was conducted by analyzing the area of absorbance at 250 nm contained within the same time window in which the peak eluted in T=0 for the 100% intact mRNA.

Chi18 model RNA [2] = test: Droplet Digital Polymerase Chain Reaction (ddPCR) Assay, Chi18; conditions: percent protection, pH 11.0, 30° C., 16 hours, n = 2
Summary of the method: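 Chi18 (25 fg/μL) or FgenL (10 fg/μL) RNA at pH 11.0 incubated 16 h with amino acids (10-point half-log series, ~300 mM top stock in CAPS), at 30° C or 44° C respectively. Intact RNA reverse-transcribed, ddPCR 5′-positive droplet fraction taken as protection; EC50 from four-parameter logistic fit.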

[3] = intact Chi18 RNA after 15 min at 50° C.

Row | Structure (SMILES) | % Control N = 1 (FgenL model RNA) [%] | % Control N = 2 (FgenL model RNA) [%] | % Control Average (FgenL model RNA) [%] | Conc. FgenL#1 (FgenL model RNA) | Conc. FgenL#2 (FgenL model RNA) | % Control N = 1 (Chi18 model RNA [1]) [%] | % Control N = 2 (Chi18 model RNA [1]) [%] | % Control Avg. (Chi18 model RNA [1]) [%] | Conc. chi18#1 (Chi18 model RNA [1]; [3]) | T0 R1 peak area at 250 nm (Chi18 mRNA construct) | T2 Avg, peak area as percentage of T=0 (Chi18 mRNA construct) [%] | T2 R1 peak area at 250 nm (Chi18 mRNA construct) | T10 Avg, peak area as percentage of T=0 (Chi18 mRNA construct) [%] | T10 R1 peak area at 250 nm (Chi18 mRNA construct) | T24 Avg, peak area as percentage of T=0 (Chi18 mRNA construct) [%] | T24 R1 peak area at 250 nm (Chi18 mRNA construct) | T0 Avg, peak area as percentage of T=0 (Chi18 mRNA construct) [%] | EC50 (Chi18 model RNA [2]) [mM] | Conc. chi18#2 (Chi18 model RNA [1]; intact Chi18 RNA after 15 min at 50° C., 20 mM amino acids in 50 mM CAPS pH 11, run #2)
1 | N[C@@H](CO)C(=O)O [Serine] | 37.7 | 31.4 | 34.5 | 13 | 10.9 | 42.2 | 42.2 | 42.2 | 22.5 | 31778 | 150.4 | 19639 | 0.0 | 0 | 0.0 | 0 | 100.0 | > 30 | –
2 | C[C@@H](O)[C@H](N)C(=O)O [Threonine] | 49.3 | 34.6 | 41.9 | 17 | 12 | 51.4 | 40.8 | 46.1 | 27.4 | 39202 | 74.6 | 28759 | 26.0 | 10963 | 0.0 | 0 | 100.0 | > 30 | 21.6
3 | N[C@@H](Cc1c[nH]c2ccccc12)C(=O)O [Tryptophan] | 3.5 | 1.5 | 2.5 | 1.21 | 0.51 | 2.9 | 2.9 | 2.9 | 1.57 | 8974 | 78.0 | 7000 | 47.7 | 3243 | 0.0 | 0 | 100.0 | > 30 | –
4 | N[C@@H](Cc1ccc(O)cc1)C(=O)O [Tyrosine] | 33.9 | 21.9 | 27.9 | 11.7 | 7.59 | 31.9 | 31.9 | 31.9 | 17 | 21493 | 90.9 | 22110 | 56.8 | 14946 | 37.6 | 10375 | 100.0 | > 30 | –
5 | CC(C)[C@H](N)C(=O)O [Valine] | 25.4 | 18.4 | 21.9 | 8.77 | 6.38 | 32.5 | 32.5 | 32.5 | 17.3 | 29804 | 56.7 | 12369 | 0.0 | 0 | 0.0 | 0 | 100.0 | > 30 | –
